Data on one compound can be found in patent publication US8158389B2, “Products and methods for in vivo secretion of monatin” (priority 2005, dated 2012).

Where “and” joins values, the source holds several entries; their conditions need not be identical. Equal entries are not always repeated.

The subject of the test is E. coli BL21 DE3 aspC/proA on pET30. Description: Monatin excretion with glucose or malate as carbon source. It is filed as cell-based, Escherichia coli. The method, then:
For inoculum, E. coli BL21 DE3 aspC/proA on pET30 was grown overnight in LB medium with 50 μg/mL kanamycin at 37° C. and 250 rpm. For the experimental treatments, Trp-1 medium, as described in Example 6 (Zeman, et al. Folia Microbiol. 35:200-204, (1990)), and 50 μg/mL kanamycin was used. Malate and glucose were 4 g/L initially for their respective treatments. For treatment flasks, 2.2 v/v % of inoculum was added to 50 mL medium volume in 250 mL baffled shake flasks. For glucose treatments, induction of the monatin operon was initiated at 0.8 OD600 nm. For malate treatments, induction was at 0.25 OD. At induction, 0.5 mM IPTG, 0.5 mM pyridoxine hydrochloride, and 0.2 mL of Balch's vitamins (Balch, W. E., et al., “Methanogens: reevaluation of a unique biological group,” Microbiol. Rev. 43:260-296 (1979)) were added. Temperature was reduced to 30° C. at induction.

Regarding `O=C(O)CC(O)C(=O)O` (stereo not drawn) [malate], the “Monatin/dcw, 24 hour average” value (carbon source 4 g/L initially, 24 hours post induction) came to 7.72 mg/g. Moreover, the “Monatin/dcw, 24 hours” value (carbon source 4 g/L initially, 24 hours post induction, single flasks) was 7.19 mg/g and 8.25 mg/g. The “higher monatin transported per unit biomass” value (malate as primary carbon source vs glucose) worked out at 23%.
